Source: paper PMC9014320 (Computational and Structural Biotechnology Journal, 2022)

How the values were obtained:
rP2X2^gain = rP2X2^gain versus rP2X3^WT
P2X3 receptors = conditions: read-out: IC50, the concentration yielding half of the maximal inhibition; cited from earlier work
cP2X3^WT = test: Patch-clamp recording of ATP current, cP2X3 WT in HEK293 cells; assay type: cell-based, chicken; conditions: AF-219 30 μM
P2X5 = conditions: cited from earlier work
P2X4 = conditions: cited from earlier work
P2X2 = conditions: cited from earlier work
P2X1 = conditions: cited from earlier work
rP2X3^L191A = conditions: cited from earlier work
P2X7 = conditions: cited from earlier work
cP2X3^A196G = test: Patch-clamp recording of ATP current, cP2X3 A196G in HEK293 cells; assay type: cell-based, chicken; conditions: AF-219 30 μM

Row | Fold increase of IC50 for rP2X2^gain over rP2X3^WT (rP2X2^gain) | Structure (SMILES) | IC50 (P2X3 receptors) | Effect on the ATP (10 μM)-current of cP2X3^WT (cP2X3^WT) | IC50 (P2X5) | IC50 (P2X4) | IC50 (P2X2) | IC50 (P2X1) | Inhibition of rP2X3^L191A (rP2X3^L191A) | IC50 (P2X7) | Effect on the ATP (10 μM)-current of cP2X3^A196G (cP2X3^A196G)
1 | 18 fold | CCC(C)c1cc(OC)c(Cl)cc1Oc1cnc(N)nc1N (stereo not shown) [AF-219-2, 5-(2-(sec-butyl)-5-chloro-4-methoxyphenoxy)pyrimidine-2,4-diamine] |  |  |  |  |  |  |  |  | 
2 |  | COc1cc(C(C)C)c(Oc2cnc(N)nc2N)cc1S(N)(=O)=O [AF-219] | 0.0426 ± 0.0029 µM | no inhibitory effect | > 10 µM | > 10 µM | > 10 µM | > 10 µM | almost fully abolished the inhibition | > 10 µM | significantly inhibited
